How the values were obtained:
[1] = tested on: chicken chorioallantoic membrane (CAM); assay: CAM assay, adenosine applied via Elvax pellets; assay type: in vivo; settings: Elvax pellet with 3 mg adenosine, left in place seven days
Protocol: Fertile White Leghorn chicken eggs were obtained from Truslow Farms (Chesterfield, Mo.). Eggs were incubated at 37° for 7 days, then a 1.5 cm window was cut into each egg over the CAM. Pellets were applied to the CAMS and the windows closed with cellophane tape. Eggs were incubated until day 14 when the CAMS were fixed. […] The pellets were placed on the CAM where there were a few vessels present and were left in place for seven days. The CAMS then were fixed in 10% buffered formalin and vessels were counted under 20× magnification using a Nikon stereomicroscope. The quantitation of vascular number is presented as vascular density index VDI that was an adaptation of a method described by Harris-Hooker (Harris-Hooker et al., Neovascular Responses Induced by Cultured Aortic Endothelial Cells, J Cell. Phys., 114, 302-310, 1983). A plastic cover slip inscribed with 4, 5, 6, and 8 mm diameter concentric circles was centered over the adenosine pellet on the formalin-fixed CAM. The vascular density was judged by counting the numbers of the vessels which intersected the circles. This technique allowed counting of vessels down to 10-12 u in diameter. The positioning of the pellets on the CAM was randomized. […] Adenosine was delivered by other means as well.

[2] = tested on: chicken chorioallantoic membrane (CAM); assay: CAM assay, drug applied daily on filter paper disc; assay type: in vivo; settings: for angiogenic response in the CAM (vessel density at edge of disk): 100 nM doses, 100 μl daily for 7 days on filter paper disk
human A3 receptor = molecular target: T1, human A3 receptor (Homo sapiens, UniProt P0DMS8); settings: cited from earlier work
T1 sequence (P0DMS8 1-318): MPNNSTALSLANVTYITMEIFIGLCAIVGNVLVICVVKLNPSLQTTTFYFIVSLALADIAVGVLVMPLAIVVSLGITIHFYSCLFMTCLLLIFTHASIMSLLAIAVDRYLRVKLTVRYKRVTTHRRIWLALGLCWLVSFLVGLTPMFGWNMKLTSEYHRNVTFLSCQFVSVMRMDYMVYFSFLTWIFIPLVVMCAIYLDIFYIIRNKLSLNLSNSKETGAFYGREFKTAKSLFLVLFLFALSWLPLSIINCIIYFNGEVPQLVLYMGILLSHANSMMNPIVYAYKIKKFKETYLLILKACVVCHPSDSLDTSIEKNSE

rat mesentery = assay: Rat mesentery angiogenesis, chronic intraperitoneal infusion by Alzet osmotic pump; assay type: in vivo; settings: chronic infusion via Alzet pumps into the peritoneal cavity of a rat
Protocol: Drug application into rat mesentery using infusion pumps. Alzet osmotic pumps were filled with drug or vehicle to a volume of 200 μl. The abdominal cavities of anesthetized 150 g Sprague-Dawley rats were incised and pumps implanted into the intraperitoneal cavity. The pumps delivered the drug at 1.0 μl/hr. After one week mesenteric samples were taken between vascular arcades along the length of the small bowel. Specimens were fixed and stained using a BS:lectin stain.
The chronic infusion was an advantage because the model is not an ischemic one, so steady long term administration of the PD 81,723 may help to augment the effects of lower concentrations of endogenous adenosine.

With `Nc1ncnc2c1ncn2[C@@H]1O[C@H](CO)[C@@H](O)[C@H]1O` [Adenosine] the “angiogenesis in the windowed CAM model (vascular density index)” value [1] was “stimulated angiogenesis”.
With `CCNC(=O)[C@H]1O[C@@H](n2cnc3c(N)nc(NCCc4ccc(CCC(=O)O)cc4)nc32)[C@H](O)[C@@H]1O` [CGS21680] the “angiogenic response in the CAM (vessel density at edge of disk)” value (“angiogenic response in the CAM” for short) [2] was “No angiogenic response”.
In the case of `OC[C@H]1O[C@@H](n2cnc3c(NC4CCCC4)ncnc32)[C@H](O)[C@@H]1O` [CPA, Cyclopentyladenosine], the “stimulation of angiogenesis in the CAM at low dose” value ([2]; 20 nM CPA alone) is reported as “did not stimulate angiogenesis” and the “angiogenic response in the CAM” value [2] is reported as “positive angiogenic response”.
In the case of `CCOC(=O)C1=C(C)NC(c2ccccc2)=C(C(=O)OCc2ccccc2)C1C#Cc1ccccc1` (centres unmarked) [MRS1191], the “selectivity for the human A3 over the A1 receptor” value (human A3 receptor) is listed as > 1300 fold.
In the case of `CCNC(=O)[C@H]1O[C@@H](n2cnc3c(N)ncnc32)[C@H](O)[C@@H]1O` [NECA], the “angiogenic response in the CAM” value [2] is reported as “positive angiogenic response”.
With `Cc1sc(N)c(C(=O)c2cccc(C(F)(F)F)c2)c1C` [PD 81,723] the “stimulation of angiogenesis in the CAM” value ([2]; 100 μM on filter paper disc, versus vehicle, no applied agonist) was 10% and the “angiogenesis in mature mammalian animal model” value (rat mesentery) was “Stimulation of angiogenesis”.
For `CC(C)N(C)c1nc2c(N[C@@H]3CC4CC3CC4O)ncnc2n1C` (some centres unmarked) [WRC-0571], the “block of C17-stimulated angiogenesis in the CAM” value ([2]; C17 plus WRC-0571) was “blocked”, the “block of angiogenic effect of CPA in the CAM” value ([2]; CPA 100 nM with 1 μM WRC-0571) was “completely blocked” and the “block of the effects of PD on angiogenesis in the CAM” value ([2]; PD plus WRC-0571) was “completely blocked”. For the same molecule, the “block of the effects of endogenous adenosine in the CAM” value ([2]; in vivo) was “blocked the effects of endogenous adenosine”.
With `CCCn1c(=O)c2[nH]c(-c3ccc(OCC(=O)NCCN)cc3)nc2n(CCC)c1=O` [XAC, xanthine amine congener] the “effect on baseline angiogenesis in the CAM” value ([2]; nonselective antagonist alone, filter paper disk, four eggs) was “did not inhibit baseline angiogenesis”.
In the case of `CNC(=O)[C@H]1O[C@@H](n2cnc3c(NCc4cccc(I)c4)ncnc32)[C@H](O)[C@@H]1O` [m-MECA, N^6-iodobenzyl-5′-N-methyl-carboxamidoadenosine], the “angiogenic response in the CAM” value [2] is reported as “positive angiogenic response”.

From patent publication US7485655B2, “2-Aminothiazole allosteric enhancers of A1 adenosine receptors” (University of Virginia Patent Foundation, priority 2002, dated 2009)
